# Legend:
# Assay in all cases: relative viability (nuclei count vs DMSO), 5 days (fraction); higher = more cells survive
# Dasatinib + Trametinib = compound: Cc1nc(Nc2ncc(C(=O)Nc3c(C)cccc3Cl)s2)cc(N2CCN(CCO)CC2)n1 [Dasatinib] + CC(=O)Nc1cccc(-n2c(=O)n(C3CC3)c(=O)c3c(Nc4ccc(I)cc4F)n(C)c(=O)c(C)c32)c1 [Trametinib] (partner 0.02 µM)
# Method in brief: (§1)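 After 5 days of treatment, lung cancer cells in 1536-well plates were fixed and stained in a single step (final 0.05% Triton X-100, 1% formaldehyde, 1 ug/ml Hoechst) and their nuclei counted on 4× images. Treatment had been applied by pin tool the day after seeding as one drug alone or as a fixed anchor-drug dose with five library-drug doses (not always all listed) in √10 steps. Relative viability is the nuclei count of treated wells divided by that of vehicle wells, and values are medians of duplicate plates.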
# XMD13-2 + Dasatinib = compound: C1CC1C(=O)NC2=NNC3=C2C=CC(=C3)C4=CC(=CC=C4)C(=O)NC5CC5 [XMD13-2] + Cc1nc(Nc2ncc(C(=O)Nc3c(C)cccc3Cl)s2)cc(N2CCN(CCO)CC2)n1 [Dasatinib] (partner 0.075 µM)
# Method in brief: as §1
# [1] = compound: Cc1ccc(C(=O)Nc2cccc(C(F)(F)F)c2)cc1Nc1cncc(C(N)=O)c1 [ALW-II-49-7] + CC(=O)c1c(C)c2cnc(Nc3ccc(N4CCNCC4)cn3)nc2n(C2CCCC2)c1=O [Palbociclib] (partner 0.5 µM)
# Method in brief: as §1
# Dasatinib + Pictilisib = compound: Cc1nc(Nc2ncc(C(=O)Nc3c(C)cccc3Cl)s2)cc(N2CCN(CCO)CC2)n1 [Dasatinib] + CS(=O)(=O)N1CCN(Cc2cc3nc(-c4cccc5[nH]ncc45)nc(N4CCOCC4)c3s2)CC1 [Pictilisib] (partner 1 µM)
# Method in brief: as §1
Cell Line,relative viability (Dasatinib + Trametinib; first compound 0.005 µM),relative viability (Dasatinib + Trametinib; first compound 0.01581 µM),relative viability (Dasatinib + Trametinib; first compound 0.05 µM),relative viability (Dasatinib + Trametinib; first compound 0.1581 µM),relative viability (Dasatinib + Trametinib; first compound 0.5 µM),relative viability (XMD13-2 + Dasatinib; first compound 0.05 µM),relative viability (XMD13-2 + Dasatinib; first compound 0.1581 µM),relative viability (XMD13-2 + Dasatinib; first compound 0.5 µM),relative viability (XMD13-2 + Dasatinib; first compound 1.581 µM),relative viability (XMD13-2 + Dasatinib; first compound 5 µM),relative viability ([1]; first compound 0.08 µM),relative viability ([1]; first compound 0.253 µM),relative viability ([1]; first compound 0.8 µM),relative viability ([1]; first compound 2.53 µM),relative viability ([1]; first compound 8 µM),relative viability (Dasatinib + Pictilisib; first compound 0.005 µM),relative viability (Dasatinib + Pictilisib; first compound 0.01581 µM),relative viability (Dasatinib + Pictilisib; first compound 0.05 µM),relative viability (Dasatinib + Pictilisib; first compound 0.1581 µM),relative viability (Dasatinib + Pictilisib; first compound 0.5 µM)
RERF-LC-KJ,0.855,0.784,0.765,0.668,0.658,0.983,0.918,0.801,0.72,0.694,1.04,1.07,1.04,0.998,1.08,0.543,0.518,0.53,0.398,0.403
NCI-H1755,0.752,0.68,0.658,0.444,0.301,0.526,0.425,0.418,0.459,0.428,0.439,0.498,0.41,0.415,0.431,0.317,0.21,0.191,0.182,0.139
NCI-H661,0.629,0.49,0.532,0.445,0.338,0.973,0.96,0.811,0.737,0.523,0.384,0.443,0.39,0.384,0.404,0.269,0.272,0.225,0.274,0.269
LOU-NH91,0.79,0.752,0.698,0.562,0.393,0.591,0.586,0.566,0.479,0.525,0.484,0.526,0.517,–,0.564,0.497,0.492,0.401,0.439,0.341
LXF-289,0.678,0.746,0.821,0.555,0.219,0.301,0.239,0.242,0.141,0.205,0.529,0.682,0.625,0.709,0.674,0.659,0.472,0.298,0.111,0.076
HARA,0.714,0.31,0.518,0.189,0.212,0.353,0.196,0.279,0.295,0.298,0.239,0.265,0.249,0.261,0.254,0.204,0.259,0.346,0.157,0.0728
201T,0.695,0.64,0.708,0.575,0.44,0.686,0.533,0.578,0.555,0.563,0.362,0.361,0.376,0.329,0.347,0.664,0.517,0.627,0.521,0.383
LC-2-ad,0.914,0.906,0.909,0.735,0.457,0.899,0.39,0.711,0.535,0.559,0.455,0.488,0.435,0.506,0.526,0.397,0.346,0.237,0.128,0.0796
NCI-H1437,0.55,0.465,0.433,0.305,0.25,0.409,0.442,0.397,0.352,0.556,0.288,0.318,0.286,0.34,0.315,0.543,0.408,0.37,0.31,0.222
NCI-H727,0.355,0.281,0.322,0.296,0.25,0.383,0.344,0.38,0.478,0.426,0.604,0.63,0.676,0.555,0.577,0.33,0.267,0.258,0.209,0.176
PC-3 [JPC-3],0.771,0.736,0.79,0.704,0.528,1.22,0.991,1,0.959,1.11,0.536,0.595,0.546,0.561,0.558,0.881,0.676,0.734,0.706,0.317
SW 1573,0.531,–,0.475,0.33,0.433,0.593,0.458,0.514,0.454,0.397,0.347,0.489,0.373,0.347,0.319,0.431,0.426,0.379,0.265,0.203
NCI-H2228,0.463,0.776,0.556,0.39,0.249,0.753,0.586,0.59,0.384,0.532,0.602,0.416,0.645,0.812,0.596,0.361,0.289,0.273,0.215,0.212
NCI-H1650,0.667,0.493,0.406,0.313,0.216,0.268,0.367,0.318,0.282,0.296,0.328,0.314,0.338,0.397,0.41,0.481,0.277,0.259,0.215,0.199
NCI-H358,0.151,0.116,0.105,0.0936,0.089,0.201,0.162,0.142,0.174,0.171,0.128,0.13,0.141,0.133,0.117,0.383,0.232,0.287,0.206,0.208
NCI-H1792,0.343,0.272,0.324,0.218,0.0771,0.966,1.03,0.798,0.971,0.829,0.564,0.454,0.471,0.522,0.548,0.317,0.222,0.234,0.128,0.0699
COR-L 105,0.445,0.358,0.389,0.336,0.253,0.463,0.325,0.343,0.365,0.323,0.391,0.333,0.41,0.421,0.423,0.359,0.383,0.316,0.308,0.245
LU99A,0.539,0.576,0.458,0.372,0.328,0.572,0.646,0.649,0.503,0.456,–,0.403,0.39,0.377,0.359,0.332,0.347,0.293,0.25,0.194
H3255,0.667,0.489,0.587,0.431,0.297,0.425,0.402,0.367,0.294,0.373,0.309,0.314,0.322,0.28,0.295,0.474,0.446,0.342,0.234,0.152
NCI-H1734,0.665,0.59,0.612,0.599,0.512,0.493,0.419,0.484,0.373,0.428,0.293,0.376,0.355,0.319,0.296,0.367,0.362,0.355,0.307,0.229
NCI-H650,0.888,0.899,0.847,0.503,0.458,0.463,0.452,0.524,0.39,0.546,0.277,0.309,0.351,0.327,0.236,0.862,0.794,0.898,0.497,0.345
NCI-H1915,0.291,0.245,0.228,0.151,0.0841,0.362,0.342,0.322,0.302,0.305,0.618,0.595,0.543,0.453,0.414,0.936,0.84,0.763,0.463,0.231
NCI-H2009,0.26,0.173,0.184,0.12,0.0876,0.366,0.277,0.432,0.288,0.278,0.211,0.264,0.242,0.203,0.199,0.705,0.503,0.41,0.193,0.124
NCI-H1651,0.848,0.852,0.834,0.77,0.679,0.508,0.351,0.423,0.374,0.538,0.522,0.476,0.49,0.439,0.444,0.716,0.499,0.46,0.423,0.419
HOP-62,0.344,0.333,0.32,0.211,0.162,0.699,0.689,0.794,0.605,0.6,0.49,0.423,0.461,0.33,0.336,0.636,0.581,0.565,0.223,0.143
CAL-12T,0.331,0.324,0.343,0.198,0.138,0.497,0.402,0.405,0.396,0.409,0.381,0.423,0.46,0.411,0.365,0.303,0.586,0.337,0.223,0.128
LCLC-103H,0.687,0.598,0.574,0.535,0.516,0.688,0.46,0.445,0.515,0.527,0.486,0.533,0.494,0.495,0.55,0.665,0.514,0.515,0.286,0.17

# Source: the supplement of paper PMC10307832
